Experimental data from patent publication US6927215B2, “Heterocyclic fluoroalkenyl thioethers and the use thereof as pesticides (I)” (Bayer Cropscience AG, priority 2000, dated 2005).

Key:
[1] = system: Boophilus microplus resistant (SP-resistant Parkhurst strain); test: Test with Boophilus microplus resistant (SP-resistant Parkhurst strain), injection, oviposition of fertile eggs; assay type: in vivo
Protocol: (§1) Test with Boophilus Microplus Resistant (SP—Resistant Parkhurst Strain)
(§2) • Test animals: adult females which have sucked themselves full • Solvent: dimethyl sulphoxide
20 mg of active compound are dissolved in 1 ml of dimethyl sulphoxide, more dilute concentrations are prepared by dilution in the same solvent.
The test is carried out in 5 replications. 1 μl of the solutions is injected into the abdomen, and the animals are transferred into dishes and kept in a climatized room. After 7 days, the activity is checked by examination for oviposition of fertile eggs. Eggs whose fertility is not visible from the outside are stored in glass tubes in a controlled-environment cabinet until the larvae have hatched. An activity of 100% means that no tick has produced any fertile eggs.

[2] = system: adults of Ctenocephalides felis; test: Test with cat fleas/oral uptake; assay type: in vivo; conditions: after 28 h
Protocol: Test with Cat Fleas/Oral Uptake
• Test animals: adults of Ctenocephalides felis • Solvent: dimethyl sulphoxide (DMSO)
To produce a suitable formulation, a suitable solution of active compound is prepared from 20 mg of active compound and 1 ml of DMSO. 15 μl of this formulation are added to 3 ml of citrated cattle blood and stirred.
10 unfed adult fleas (Ctenocephalides felis, strain “Georgi”) are placed into a chamber (Ø3.2 cm) whose top and bottom are closed with gauze. A metal cylinder whose underside is covered with parafilm is placed onto the chamber. The cylinder contains 3 ml of blood/active compound formulation which can be taken up by the fleas through the parafilm membrane. Whereas the blood is warmed to 37° C., the temperature in the area of the flea chambers is adjusted to 25° C. Controls are mixed with the same volume of DMSO, without addition of a compound. The determinations are carried out in triplicate.
After 28 h, the mortality in % (=dead fleas) is determined.
Compounds which effect an at least 25% kill of the fleas within 28 h are judged to be effective.

Lucilia cuprina larvae = test: Blowfly larvae test (development-inhibitory action); assay type: in vivo
Protocol: Blowfly Larvae Test (Development-Inhibitory Action)
• Test animals: Lucilia cuprina larvae • Solvent: dimethyl sulphoxide
(§3) 20 mg of active compound are dissolved in 1 ml of dimethyl sulphoxide, more dilute concentrations are prepared by dilution with distilled water.
About 20 Lucilia cuprina larvae are introduced into a test tube which contains about 1 cm^3 of horse meat and 0.5 ml of the preparation of active compound to be tested. After 24 hours and 48 hours, the efficacy of the preparation of active compound is determined. The test tubes are transferred into a beaker whose bottom is covered with sand. After a further 2 days, the test tubes are removed and the pupae are counted.
The efficacy of the preparation of active compound is assessed by the number of flies that have hatched after 1.5 times the period of development of an untreated control. 100% means that no flies have hatched; 0% means that all flies have hatched normally.

[3] = system: Trichinella spiralis larvae; test: Trichinella spiralis in-vitro; assay type: cell-based; design: key: 0 means no activity; 1 means weak activity; 2 means good activity; 3 means full activity; conditions: 5 days at 19° C.
Protocol: Trichinella spiralis In-vitro
• Test animals: Trichinella spiralis larvae • Solvent: dimethyl sulphoxide
Trichinella spiralis larvae are isolated from skeletal muscles and subcutaneous muscles of SPF/CFW1 mice and collected in aqueous 0.9% NaCl containing 20 μg of sisomycin/ml. Per determination, 20 larvae are incubated in 2 ml of a nutrient solution (20 g of Bacto Casitone/l, 10 g of yeast extract/l, 5 g of glucose/l, 0.8 g of KH2PO4/l, 0.8 g of K2HPO4; […] of sisomycin/ml and 1 μg of Canesten/ml; pH=7.2).
The incubation and the determination have been described in Martin et al., Pesticide Science (1996) 48, 343-349. 10 mg of the test compound are dissolved in 0.5 ml of the stated solvent, and such an amount of the resulting solution is added to the incubation medium that the desired concentration is reached. The controls contain only the solvent.
After an incubation time of 5 days at a temperature of 19° C., the experiment is terminated. The anthelmintic activity of a substance is categorized into 4 stages. 0 means no activity, 1 means weak activity, 2 means good activity and 3 means full activity (<50%, 50-75%, >75%, 100% of the larvae dead).

logP (pH2) = assay type: physicochemical
[4] = system: Meloidogyne incognita egg/larvae; test: Meloidogyne test; assay type: in vivo; conditions: active compound concentration 20 ppm; lettuce
Protocol: • Solvent: 8 parts by weight of acetone • Emulsifier: 1 part by weight of alkylaryl polyglycol ether
To produce a suitable preparation of active compound, 1 part by weight of active compound is mixed with the stated amounts of solvent and emulsifier, and the concentrate is diluted with water to the desired concentration.
Containers are filled with sand, solution of active compound, Meloidogyne incognita egg/larvae suspension and lettuce seeds. The lettuce seeds germinate and the plants develop. On the roots, galls are formed.
After the desired period of time, the nematicidal action is determined in % using gall formation as a measure. 100% means that no galls were found; 0% means that the number of galls on the treated plants corresponds to that of the untreated control.

[5] = system: peach aphid (Myzus persicae); test: Myzus test; assay type: in vivo; conditions: active compound concentration 0.1%; after 6 days
Protocol: (§4) • Solvent: 30 parts by weight of dimethylformamide • Emulsifier: 1 part by weight of alkylaryl polyglycol ether
(§5) To produce a suitable preparation of active compound, 1 part by weight of active compound is mixed with the stated amounts of solvent and emulsifier, and the concentrate is diluted with emulsifier-containing water to the desired concentration.
Cabbage leaves (Brassica oleracea) which are heavily infested by the peach aphid (Myzus persicae) are treated by being dipped into the preparation of active compound of the desired concentration.
After the desired period of time, the kill in % is determined. 100% means that all aphids have been killed; 0% means that none of the aphids have been killed.

[6] = system: larvae of the mustard beetle (Phaedon cochleariae); test: Phaedon larvae test; assay type: in vivo; conditions: active compound concentration 0.1%; after 7 days
Protocol: as §4, §5
Cabbage leaves (Brassica oleracea) are treated by being dipped into the preparation of active compound of the desired concentration and are populated with larvae of the mustard beetle (Phaedon cochleariae) while the leaves are still moist.
After the desired period of time, the kill in % is determined. 100% means that all beetle larvae have been killed; 0% means that none of the beetle larvae have been killed.

[7] = system: caterpillars of the army worm (Spodoptera frugiperda); test: Spodoptera frugiperda test; assay type: in vivo; conditions: active compound concentration 0.1%; after 7 days
Protocol: Spodoptera frugiperda Test
as §4, §5
Cabbage leaves (Brassica oleracea) are treated by being dipped into the preparation of active compound of the desired concentration and are populated with caterpillars of the army worm (Spodoptera frugiperda) while the leaves are still moist.
After the desired period of time, the kill in % is determined. 100% means that all caterpillars have been killed; 0% means that none of the caterpillars have been killed.

[8] = system: Boophilus microplus resistant (SP-resistant Parkhurst strain); test: Test with Boophilus microplus resistant (SP-resistant Parkhurst strain), dipping; assay type: in vivo; conditions: active compound concentration 100 ppm; dipped for 1 minute
Protocol: as §1, §2, §3
10 adult Boophilus microplus res. are dipped for 1 minute into the preparation of active compound to be tested. The animals are transferred into plastic beakers and kept in a climatized room, and the kill rate is then determined.
100% means that all ticks have been killed; 0% means that none of the ticks have been killed.

[9] = system: adult Musca domestica, Reichswald strain (OP, SP, carbamate-resistant); test: Test with flies (Musca domestica); assay type: in vivo; conditions: active compound concentration 100 ppm
Protocol: Test with Flies (Musca domestica)
• Test animals: adult Musca domestics, Reichswald strain (OP, SP, carbamate-resistant) • Solvent: dimethyl sulphoxide
as §3
2 ml of this active compound preparation are pipetted onto filter paper discs (Ø9.5 cm) in petri dishes of corresponding dimensions. After the filter discs have been dried, 25 test animals are transferred into the petri dishes, which are then covered.
After 1, 3, 5, 24 and 48 hours, the activity of the active compound preparation is determined. 100% means that all flies have been killed; 0% means that none of the flies have been killed.

[10] = system: greenhouse red spider mite (Tetranychus urticae); test: Tetranychus test (OP-resistant/dip treatment); assay type: in vivo; conditions: active compound concentration 0.1%; after 7 days
Protocol: Tetranychus Test (OP-Resistant/Dip Treatment)
as §4, §5
Bean plants (Phaseolus vulgaris) which are heavily infested by all stages of the greenhouse red spider mite (Tetranychus urticae) are dipped into a preparation of active compound of the desired concentration.
After the desired period of time, the effect in % is determined. 100% means that all spider mites have been killed; 0% means that none of the spider mites have been killed.

[11] = 0.8 μg per animal, injection, after 7 days
[12] = 4 μg per animal, injection, after 7 days
[13] = 20 μg per animal, injection, after 7 days
[14] = active compound concentration 100 ppm
[15] = active compound concentration 20 ppm
[16] = active compound concentration 4 ppm, injection, after 7 days
[17] = active compound concentration 20 ppm, injection, after 7 days

CC1SC(SCCC=C(F)F)=NS1(=O)=O (racemic) [Example 8]
kill (no fertile eggs) [1, 11]: 100% | kill (no fertile eggs) [1, 12]: 100% | kill (no fertile eggs) [1, 13]: 100% | kill (no fertile eggs) [1, 14]: 100% | kill (mortality) [2, 15]: 79% | kill (mortality) [2, 14]: 91% | kill (no flies hatched) (Lucilia cuprina larvae; [14]): 100% | anthelmintic activity class (larvae dead) [3, 14]: no activity

CC1SC(SCCCCC(F)=C(F)F)=NS1(=O)=O (racemic) [Example 9]
logP (pH2) (logP (pH2)): 3.24

CC1SC(SCCCCC=C(F)F)=NS1(=O)=O (racemic) [Example 10]
logP (pH2) (logP (pH2)): 3.31 | kill (no fertile eggs) [1, 11]: 100% | kill (no fertile eggs) [1, 12]: 100% | kill (no fertile eggs) [1, 13]: 100% | kill (no fertile eggs) [1, 14]: 100% | kill (mortality) [2, 15]: 83% | kill (mortality) [2, 14]: 95% | kill (no flies hatched) (Lucilia cuprina larvae; [14]): 100% | anthelmintic activity class (larvae dead) [3, 14]: no activity

O=S1(=O)CSC(SCCC(F)=C(F)F)=N1 [Example 1, 5-(4,4,3-trifluorobutenylthio)-1,3,4-dithiazoline 3,3-dioxide]
nematicidal action (activity) using gall formation as a measure [4]: 100% | kill (no fertile eggs) [1, 16]: 100% | kill (no fertile eggs) [1, 17]: 100% | kill (no flies hatched) (Lucilia cuprina larvae; [15]): 100% | kill (no flies hatched) (Lucilia cuprina larvae; [14]): 100% | melting point: 50 °C

O=S1(=O)CSC(SCCC=C(F)F)=N1 [Example 2]
logP (pH2) (logP (pH2)): 2.24 | nematicidal action (activity) using gall formation as a measure [4]: 100% | kill [5]: 100% | kill [6]: 100% | kill [7]: 100% | kill [8]: 90% | kill (no fertile eggs) [1, 16]: 100% | kill (no fertile eggs) [1, 17]: 100% | kill (mortality) [2, 14]: 100% | kill [9]: 60%

O=S1(=O)CSC(SCCCCC(F)=C(F)F)=N1 [Example 3]
logP (pH2) (logP (pH2)): 2.93 | kill (no fertile eggs) [1, 16]: 100% | kill (no fertile eggs) [1, 17]: 100% | kill (no flies hatched) (Lucilia cuprina larvae; [15]): 100% | kill (no flies hatched) (Lucilia cuprina larvae; [14]): 100% | anthelmintic activity class (larvae dead) ([3]; active compound concentration 10 ppm): weak activity (1 means weak activity)

O=S1(=O)CSC(SCCCCC=C(F)F)=N1 [Example 4]
logP (pH2) (logP (pH2)): 2.99 | kill [5]: 100% | kill [6]: 100% | kill [10]: 100% | kill [8]: 100% | kill (no fertile eggs) [1, 16]: 100% | kill (no fertile eggs) [1, 17]: 100% | kill (mortality) [2, 14]: 100% | kill [9]: 40% | anthelmintic activity class (larvae dead) [3, 14]: no activity

O=S1(=O)CCSC(SCCCCC=C(F)F)=N1 [Example 6]
kill (no fertile eggs) [1, 11]: 100% | kill (no fertile eggs) [1, 12]: 100% | kill (no fertile eggs) [1, 13]: 100% | kill (no fertile eggs) [1, 14]: 100% | kill (mortality) [2, 15]: 73% | kill (mortality) [2, 14]: 95% | kill (no flies hatched) (Lucilia cuprina larvae; [14]): 100% | anthelmintic activity class (larvae dead) [3, 14]: no activity

O=S1(=O)CCSC(SCCC=C(F)F)=N1 [Example 11]
kill (no fertile eggs) [1, 11]: 100% | kill (no fertile eggs) [1, 12]: 100% | kill (no fertile eggs) [1, 13]: 100% | anthelmintic activity class (larvae dead) [3, 14]: no activity

O=S1(=O)CCCSC(SCCC(F)=C(F)F)=N1 [Example 13]
kill (no fertile eggs) [1, 11]: 100% | kill (no fertile eggs) [1, 12]: 100% | kill (no fertile eggs) [1, 13]: 100%

O=S1(=O)CCCSC(SCCCCC=C(F)F)=N1 [Example 16]
kill (no fertile eggs) [1, 11]: 100% | kill (no fertile eggs) [1, 12]: 100% | kill (no fertile eggs) [1, 13]: 100% | kill (no fertile eggs) [1, 14]: 100% | kill (mortality) [2, 15]: 89% | kill (mortality) [2, 14]: 91% | anthelmintic activity class (larvae dead) [3, 14]: no activity
